Laboratory results from EP0908457B1, “3-(1,2-benzisothiazol- and isoxazol-5-Y1)-2,4(1H,3H)-pyrimidinedione or thione and 3-(1,2-benzisothiazol- and isoxazol-5-y1)-4(3H)-pyrimidinone or thione herbicidal agents” (BASF AKTIENGESELLSCHAFT, priority 1997, dated 1999).

Columns and labels:
[1] = system: Cyperus serotinus, Rottb.; assay: Preemergence weed control under flooded paddy conditions, CYPSE (Flatsedge); assay type: in vivo; settings: for CYPSE herbicidal effect rating / herbicidal effect rating, CYPSE: preemergence; for CYPSE: preemergence weeds, herbicidal effect rating 0-9, three to four weeks after treatment; as to herbicidal effect rating, CYPSE: meaning of each grade not given here
Sagittaria pygmaea, L. = assay: Preemergence weed control under flooded paddy conditions, SAGPY (Arrowhead (Pygmaea)); assay type: in vivo; settings: flooded paddy; for SAGPY herbicidal effect rating / herbicidal effect rating, SAGPY: preemergence; for SAGPY: preemergence weeds, herbicidal effect rating 0-9, three to four weeks after treatment; as to herbicidal effect rating, SAGPY: meaning of each grade not given here
[2] = system: Oryza sativa, (L.) Tebonnet; assay: Rice tolerance to post-transplant applications under flooded paddy conditions (Example 187), ORYSAT (Rice, Tebonnet); settings: for ORYSAT: herbicidal effect rating 0-9, three to four weeks after treatment; as to herbicidal effect rating ORYSAT: meaning of each grade not given here
[3] = system: Monochoria vaginalis, Presl.; assay: Preemergence weed control under flooded paddy conditions, MOOVA (Monochoria); assay type: in vivo; settings: flooded paddy; for MOOVA herbicidal effect rating / herbicidal effect rating, MOOVA: preemergence; for MOOVA: preemergence weeds, herbicidal effect rating 0-9, three to four weeks after treatment; as to herbicidal effect rating, MOOVA: meaning of each grade not given here
Cyperus iria = assay: Preemergence weed control under flooded paddy conditions, CYPIR (Rice Flatsedge); assay type: in vivo; settings: flooded paddy; for CYPIR herbicidal effect rating / herbicidal effect rating, CYPIR: preemergence; for CYPIR: preemergence weeds, herbicidal effect rating 0-9, three to four weeks after treatment; as to herbicidal effect rating, CYPIR: meaning of each grade not given here
[4] = system: Echinochloa oryzoides (Ard.) Fritsch.; assay: Preemergence weed control under flooded paddy conditions, ECHORC (Watergrass (Calif.)); assay type: in vivo; settings: flooded paddy; for ECHORC herbicidal effect rating / herbicidal effect rating, ECHORC: preemergence; for ECHORC: preemergence weeds, herbicidal effect rating 0-9, three to four weeks after treatment; as to herbicidal effect rating, ECHORC: meaning of each grade not given here
[5] = Rate 0.0320 kg/ha, rated three to four weeks after treatment
[6] = Rate 0.0620 kg/ha, rated three to four weeks after treatment
[7] = Rate 0.1250 kg/ha, rated three to four weeks after treatment
[8] = Rate 0.2500 kg/ha, rated three to four weeks after treatment
[9] = Rate 0.5000 kg/ha, rated three to four weeks after treatment
[10] = Rate 0.0320 kg/ha, rated 3-4 weeks after treatment
[11] = Rate 0.0620 kg/ha, rated 3-4 weeks after treatment
[12] = Rate 0.1250 kg/ha, rated 3-4 weeks after treatment
[13] = Rate 0.2500 kg/ha, rated 3-4 weeks after treatment

C#CCOC(=O)COc1ccc(-c2nsc3ccc(-n4c(=O)cc(C(F)(F)F)n(C)c4=O)cc23)cc1 [Example 259, Acetic acid, [p-{5-[3,6-dihydro-3-methyl-2,6-dioxo-4-(trifluoromethyl)-1(2H)-pyrimidinyl]-1,2-benzisothiazol-3-yl}phenoxy)-, 2-propynyl ester]
0.0: CYPSE herbicidal effect rating [1, 5] | CYPSE herbicidal effect rating [1, 6] | SAGPY herbicidal effect rating (Sagittaria pygmaea, L.; [5]) | SAGPY herbicidal effect rating (Sagittaria pygmaea, L.; [6]) | SAGPY herbicidal effect rating (Sagittaria pygmaea, L.; [7]) | SAGPY herbicidal effect rating (Sagittaria pygmaea, L.; [8]) | CYPIR herbicidal effect rating (Cyperus iria; [5]) | ECHORC herbicidal effect rating [4, 5] | ECHORC herbicidal effect rating [4, 6] | ECHORC herbicidal effect rating [4, 7]
9.0: MOOVA herbicidal effect rating [3, 6] | MOOVA herbicidal effect rating [3, 7] | MOOVA herbicidal effect rating [3, 8]
4.0: CYPIR herbicidal effect rating (Cyperus iria; [7]) | CYPIR herbicidal effect rating (Cyperus iria; [8])
2.0: ORYSAT herbicidal effect rating [2, 7] | CYPIR herbicidal effect rating (Cyperus iria; [6]) | ECHORC herbicidal effect rating [4, 8]
3.0: ORYSAT herbicidal effect rating [2, 8]
1.0: ORYSAT herbicidal effect rating [2, 5] | ORYSAT herbicidal effect rating [2, 6]
6.0: MOOVA herbicidal effect rating [3, 5]

CCOCOCc1nsc2ccc(-n3c(=O)cc(C(F)(F)F)n(C)c3=O)cc12 [Example 455, 2,4(1H,3H)-Pyrimidinedione, 3-(3-[(ethoxymethoxy)methyl]-1,2-benzisothiazol-5-yl}-1-methyl-6-(trifluoromethyl)-]
6.0: CYPSE ([1]; 0.0620 kg/ha) | SAGPY (Sagittaria pygmaea, L.; 0.0620 kg/ha) | ORYSAT ([2]; 0.0320 kg/ha) | MOOVA ([3]; 0.0320 kg/ha) | CYPIR (Cyperus iria; 0.0320 kg/ha)
9.0: CYPSE ([1]; 0.2500 kg/ha) | SAGPY (Sagittaria pygmaea, L.; 0.2500 kg/ha) | ORYSAT ([2]; 0.1250 kg/ha) | ORYSAT ([2]; 0.2500 kg/ha) | MOOVA ([3]; 0.1250 kg/ha) | MOOVA ([3]; 0.2500 kg/ha) | CYPIR (Cyperus iria; 0.1250 kg/ha) | CYPIR (Cyperus iria; 0.2500 kg/ha) | ECHORC ([4]; 0.0320 kg/ha) | ECHORC ([4]; 0.0620 kg/ha) | ECHORC ([4]; 0.1250 kg/ha) | ECHORC ([4]; 0.2500 kg/ha)
8.0: CYPSE ([1]; 0.1250 kg/ha) | ORYSAT ([2]; 0.0620 kg/ha)
7.0: SAGPY (Sagittaria pygmaea, L.; 0.1250 kg/ha) | MOOVA ([3]; 0.0620 kg/ha) | CYPIR (Cyperus iria; 0.0620 kg/ha)
2.0: CYPSE ([1]; 0.0320 kg/ha)
4.0: SAGPY (Sagittaria pygmaea, L.; 0.0320 kg/ha)

Cn1c(C(F)(F)F)cc(=O)n(-c2ccc3snc(CS(=O)(=O)CC(=O)O)c3c2)c1=O [Example 282, Acetic acid, {{{5-[3,6-dihydro-3-methyl-2,6-dioxo-4-(trifluoromethyl)-1(2H)-pyrimidinyl]-1,2-benzisothiazol-3-yl}methyl}sulfonyl}-]
4.0: ORYSAT herbicidal effect rating [2, 7] | ORYSAT herbicidal effect rating [2, 8] | CYPIR herbicidal effect rating (Cyperus iria; [5])
6.0: MOOVA herbicidal effect rating [3, 5]
0.0: CYPSE herbicidal effect rating [1, 5] | CYPSE herbicidal effect rating [1, 6] | CYPSE herbicidal effect rating [1, 7] | CYPSE herbicidal effect rating [1, 8] | CYPSE herbicidal effect rating [1, 9] | SAGPY herbicidal effect rating (Sagittaria pygmaea, L.; [5]) | SAGPY herbicidal effect rating (Sagittaria pygmaea, L.; [6]) | SAGPY herbicidal effect rating (Sagittaria pygmaea, L.; [7]) | SAGPY herbicidal effect rating (Sagittaria pygmaea, L.; [8]) | SAGPY herbicidal effect rating (Sagittaria pygmaea, L.; [9]) | ORYSAT herbicidal effect rating [2, 9] | ECHORC herbicidal effect rating [4, 5] | ECHORC herbicidal effect rating [4, 6] | ECHORC herbicidal effect rating [4, 8] | ECHORC herbicidal effect rating [4, 9]
9.0: MOOVA herbicidal effect rating [3, 6] | MOOVA herbicidal effect rating [3, 7] | MOOVA herbicidal effect rating [3, 8] | MOOVA herbicidal effect rating [3, 9] | CYPIR herbicidal effect rating (Cyperus iria; [9])
1.9: ECHORC herbicidal effect rating [4, 7]
3.0: ORYSAT herbicidal effect rating [2, 6]
2.0: ORYSAT herbicidal effect rating [2, 5]
8.0: CYPIR herbicidal effect rating (Cyperus iria; [6]) | CYPIR herbicidal effect rating (Cyperus iria; [7]) | CYPIR herbicidal effect rating (Cyperus iria; [8])

Cn1c(C(F)(F)F)cc(=O)n(-c2ccc3snc(COCc4cccc([N+](=O)[O-])c4)c3c2)c1=O [Example 588, 2,4(1H,3H)-Pyrimidinedione, 1-methyl-3-{3-{[(m-nitrobenzyl)oxy]methyl}-1,2-benzisothiazol-5-yl}-6-(trifluoromethyl)-]
0.0: herbicidal effect rating, CYPSE [1, 5] | herbicidal effect rating, CYPSE [1, 6] | herbicidal effect rating, SAGPY (Sagittaria pygmaea, L.; [5]) | herbicidal effect rating, SAGPY (Sagittaria pygmaea, L.; [6]) | herbicidal effect rating, SAGPY (Sagittaria pygmaea, L.; [7]) | herbicidal effect rating, SAGPY (Sagittaria pygmaea, L.; [8]) | herbicidal effect rating ORYSAT [2, 5] | herbicidal effect rating, CYPIR (Cyperus iria; [5])
8.0: herbicidal effect rating, MOOVA [3, 8]
6.0: herbicidal effect rating, CYPIR (Cyperus iria; [7]) | herbicidal effect rating, CYPIR (Cyperus iria; [8])
3.0: herbicidal effect rating ORYSAT [2, 6] | herbicidal effect rating ORYSAT [2, 7] | herbicidal effect rating ORYSAT [2, 8]
4.0: herbicidal effect rating, ECHORC [4, 5]
2.0: herbicidal effect rating, CYPIR (Cyperus iria; [6])
7.0: herbicidal effect rating, MOOVA [3, 7] | herbicidal effect rating, ECHORC [4, 6] | herbicidal effect rating, ECHORC [4, 8]
5.0: herbicidal effect rating, CYPSE [1, 7] | herbicidal effect rating, CYPSE [1, 8]
9.0: herbicidal effect rating, ECHORC [4, 7]

Cc1nsc2ccc(-n3c(=O)c(Cl)c(C(F)(F)F)n(C)c3=O)cc12 [Example 271, 2,4(1H,3H)-Pyrimidinedione, 5-chloro-1-methyl-3-(3-methyl-1,2-benzisothiazol-5-yl)-6-(trifluoromethyl)-]
0.0: CYPSE herbicidal effect rating [1, 6] | CYPSE herbicidal effect rating [1, 7] | CYPSE herbicidal effect rating [1, 8] | CYPSE herbicidal effect rating [1, 9] | SAGPY herbicidal effect rating (Sagittaria pygmaea, L.; [6]) | SAGPY herbicidal effect rating (Sagittaria pygmaea, L.; [7]) | SAGPY herbicidal effect rating (Sagittaria pygmaea, L.; [8]) | SAGPY herbicidal effect rating (Sagittaria pygmaea, L.; [9]) | ORYSAT herbicidal effect rating [2, 9] | MOOVA herbicidal effect rating [3, 6] | CYPIR herbicidal effect rating (Cyperus iria; [6]) | CYPIR herbicidal effect rating (Cyperus iria; [7]) | CYPIR herbicidal effect rating (Cyperus iria; [8]) | CYPIR herbicidal effect rating (Cyperus iria; [9]) | ECHORC herbicidal effect rating [4, 6] | ECHORC herbicidal effect rating [4, 7] | ECHORC herbicidal effect rating [4, 8] | ECHORC herbicidal effect rating [4, 9]
2.0: ORYSAT herbicidal effect rating [2, 7]
9.0: MOOVA herbicidal effect rating [3, 8] | MOOVA herbicidal effect rating [3, 9]
4.0: MOOVA herbicidal effect rating [3, 7]
3.0: ORYSAT herbicidal effect rating [2, 8]
1.0: ORYSAT herbicidal effect rating [2, 6]

CSCCCCOC(=O)COc1ccc(C)cc1-c1nsc2ccc(-n3c(=O)cc(C(F)(F)F)n(C)c3=O)cc12 [Example 518, Acetic acid, {{2-{5-[3,6-dihydro-3-methyl-2,6-dioxo-4-(trifluoromethyl)-1(2H)-pyrimidinyl]-1,2-benzisothiazol-3-yl}-p-tolyl}oxy}-, 4-(methylthio)butyl ester]
1.0: herbicidal effect rating ORYSAT [2, 10]
4.0: herbicidal effect rating ORYSAT [2, 12] | herbicidal effect rating ORYSAT [2, 13] | herbicidal effect rating, MOOVA [3, 10] | herbicidal effect rating, CYPIR (Cyperus iria; [13]) | herbicidal effect rating, ECHORC [4, 12]
0.0: herbicidal effect rating, CYPSE [1, 10] | herbicidal effect rating, CYPSE [1, 11] | herbicidal effect rating, CYPSE [1, 12] | herbicidal effect rating, CYPSE [1, 13] | herbicidal effect rating, SAGPY (Sagittaria pygmaea, L.; [10]) | herbicidal effect rating, SAGPY (Sagittaria pygmaea, L.; [11]) | herbicidal effect rating, SAGPY (Sagittaria pygmaea, L.; [12]) | herbicidal effect rating, SAGPY (Sagittaria pygmaea, L.; [13]) | herbicidal effect rating, CYPIR (Cyperus iria; [10]) | herbicidal effect rating, ECHORC [4, 10]
7.0: herbicidal effect rating, MOOVA [3, 11] | herbicidal effect rating, ECHORC [4, 13]
9.0: herbicidal effect rating, MOOVA [3, 12] | herbicidal effect rating, MOOVA [3, 13]
2.0: herbicidal effect rating ORYSAT [2, 11] | herbicidal effect rating, CYPIR (Cyperus iria; [11]) | herbicidal effect rating, CYPIR (Cyperus iria; [12]) | herbicidal effect rating, ECHORC [4, 11]
